Values after ≈ are worked out from the molar mass of the structure shown.
Tests used:
Type in all cases: functional
Staphylococcus aureus [1] = assay: Antibacterial activity against multidrug-resistant Staphylococcus aureus after 18 hrs by dilution method
Staphylococcus aureus [2] = assay: Antibacterial activity against Staphylococcus aureus after 18 hrs by dilution method
Staphylococcus aureus [3] = assay: Antibacterial activity against methicillin-resistant Staphylococcus aureus after 18 hrs by dilution method

Compound	MIC (Staphylococcus aureus [1]) [µg/mL]	MIC (Staphylococcus aureus [2]) [µg/mL]	MIC (Staphylococcus aureus [3]) [µg/mL]
C/C=C(\C)[C@H]1[C@@H](/C=C/C=C(\C)[C@@H](O)[C@@H](C)CO)[C@@H]2C[C@@H](Cl)[C@](C)(O)C[C@H]2[C@@H]2O[C@@]21C [DEHYDROXYCHLOROFUSARIELIN B]	62.5 (≈ 142 µM)	62.5 (≈ 142 µM)	62.5 (≈ 142 µM)
C/C=C(\C)[C@H]1[C@@H](/C=C/C=C(\C)[C@@H](O)[C@@H](C)CO)[C@@H]2C[C@@H]3O[C@]3(C)C[C@H]2[C@@H]2O[C@@]21C [FUSARIELIN A]	62.5 (≈ 155 µM)	32.5 (≈ 80.7 µM)	32.5 (≈ 80.7 µM)
C/C=C(\C)[C@H]1[C@@H](/C=C/C=C(\C)[C@@H](O)[C@@H](C)CO)[C@@H]2C[C@@H](O)[C@](C)(O)C[C@H]2[C@@H]2O[C@@]21C [FUSARIELIN B]	62.5 (≈ 149 µM)	62.5 (≈ 149 µM)	62.5 (≈ 149 µM)
